Experimental data reported in publication PMC12471299, “Secondary Metabolites of the Marine Sponge-Derived Fungus Aspergillus subramanianii 1901NT-1.40.2 and Their Antimicrobial and Anticancer Activities” (Marine Drugs, 2025).
Values after ≈ are worked out from the molar mass of the structure shown. Values joined by “and” are separate entries in the source; they are usually repeats but may differ in a detail not shown here. Identical values can stand only once.

How the values were obtained:
HT29 cells = test system: HT29 cells; parameters: method as in PMID 29642369; conditions: cited from earlier work
MCF-7 cells = test system: MCF-7 cells; parameters: method as in PMID 29642369; conditions: cited from earlier work
[1] = test system: MCF-7 breast cancer cells; test: Cell viability assay (MTT); type: cell-based, human
[2] = test system: MCF-10A breast epithelial cells; test: Cell viability assay (MTT); type: cell-based, human; conditions: MCF10A
In short: (§1)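 Seeding/well: H9c2 3 × 10^3; MDA-MB-231, MCF-10A 5 × 10^3; HaCaT 1 × 10^4. Treatment began 24 h post-seeding; compounds ≤100 µM, 24 h or 48 h, 37 °C. Read-out MTT, % of DMSO control.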

HaCaT keratinocytes = test: Cell viability assay (MTT); type: cell-based, human
In short: as §1

[3] = Cell viability assay (MTT); type: cell-based, rat; conditions: rat, H9c2 cardiomyocytes, read-out: Cytotoxicity IC50; for IC50 at 24 h: H9c2, 24 h; for IC50 at 48 h: H9c2, 48 h
In short: as §1

H9c2 cardiomyocytes = test: Cell viability assay (MTT); type: cell-based, rat
In short: as §1

E. faecalis ATCC 29212 = test system: E. faecalis ATCC 29212; parameters: method as in PMID 29642369; conditions: cited from earlier work
[4] = test system: malignant glioma U251 cells; parameters: method as in PMID 29642369; conditions: cited from earlier work
S. aureus ATCC 29213 = test system: S. aureus ATCC 29213; parameters: method as in PMID 29642369; conditions: cited from earlier work
Candida albicans KMM 455 [5] = test: Antimicrobial assay, growth inhibition (optical density); type: cell-based; conditions: C. albicans, 18 h; for MIC50: Candida albicans, KMM455, 18 h
In short: (§2)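 Strains were precultured on Mueller Hinton agar at 37 °C for 24 h, then exposed to compound at up to 100 µM. Growth was read as OD620 after 18 h; 18 h biofilm formation was quantified with MTT at OD570. Values are MIC50, the lowest concentration cutting growth or biofilm by 50% versus 1% DMSO/PBS control.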

[6] = test system: Staphylococcus aureus ATCC 21027; test: as above; type: cell-based; conditions: S. aureus, 18 h; for MIC50: Staphylococcus aureus, ATCC21027, 18 h
In short: as §2

[7] = test system: methicillin-resistant S. aureus (MRSA); parameters: method as in PMID 29642369; conditions: cited from earlier work
Candida albicans KMM 455 [8] = test: Biofilm formation assay (MTT); type: cell-based; conditions: C. albicans, 18 h
In short: (§3)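 Cultures grown 24 h at 37 °C on Mueller Hinton agar; compound applied at concentrations of 100 µM and below. After 18 h, growth read at OD620 and biofilm via MTT at OD570; results expressed as percent of 1% DMSO/PBS control and given as MIC50.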

[9] = test system: Escherichia coli VKPM (B-7935); test: Biofilm formation assay (MTT); type: cell-based; conditions: E. coli, 18 h
In short: as §3

[10] = test system: malignant glioma T98G cells; parameters: method as in PMID 29642369; conditions: cited from earlier work

COc1c(OC)c(-c2c[nH]c3ccc(O)cc23)c(OC)c(OC)c1-c1c[nH]c2ccccc12 [Compound 8, petromurin C]
IC50 (HT29 cells; read-out: IC50, cell viability): 34.8 µM
IC50 (MCF-7 cells; MCF-7 cells, read-out: IC50, cell viability): 94.8 µM
cell viability ([1]; MCF-7, 24 h, 1.0 µM): 105.4 ± 5.9 % of control
cell viability ([1]; MCF-7, 24 h, 10.0 µM): 92.8 ± 3.0 % of control
cell viability ([1]; MCF-7, 24 h, 100.0 µM): 53.7 ± 6.8 % of control
cell viability ([1]; MCF-7, 48 h, 1.0 µM): 77.7 ± 3.7 % of control
cell viability ([1]; MCF-7, 48 h, 10.0 µM): 70.6 ± 8.5 % of control
cell viability ([1]; MCF-7, 48 h, 100.0 µM): 28.6 ± 4.3 % of control
cell viability ([2]; 24 h, 1.0 µM): 91.9 ± 9.5 % of control
cell viability ([2]; 24 h, 10.0 µM): 81.4 ± 1.0 % of control
cell viability ([2]; 24 h, 100.0 µM): 52.0 ± 4.0 % of control
cell viability ([2]; 48 h, 1.0 µM): 95.3 ± 3.4 % of control
cell viability ([2]; 48 h, 10.0 µM): 92.1 ± 2.1 % of control
cell viability ([2]; 48 h, 100.0 µM): 45.7 ± 6.6 % of control
cell viability (HaCaT keratinocytes; 24 h, 1.0 µM): 102.7 ± 7.7 % of control
cell viability (HaCaT keratinocytes; 24 h, 10.0 µM): 93.1 ± 6.9 % of control
cell viability (HaCaT keratinocytes; 24 h, 100.0 µM): 64.3 ± 1.9 % of control
cell viability (HaCaT keratinocytes; 48 h, 1.0 µM): 95.8 ± 1.9 % of control
cell viability (HaCaT keratinocytes; 48 h, 10.0 µM): 97.7 ± 1.4 % of control
cell viability (HaCaT keratinocytes; 48 h, 100.0 µM): 36.8 ± 7.0 % of control
IC50 at 24 h [3]: > 100 µM
IC50 at 48 h [3]: > 100 µM
cell viability (H9c2 cardiomyocytes; H9c2, 24 h, 1.0 µM): 100.9 ± 1.7 % of control
cell viability (H9c2 cardiomyocytes; H9c2, 24 h, 10.0 µM): 95.9 ± 2.3 % of control
cell viability (H9c2 cardiomyocytes; H9c2, 24 h, 100.0 µM): 57.4 ± 8.5 % of control
cell viability (H9c2 cardiomyocytes; H9c2, 48 h, 1.0 µM): 101.6 ± 2.2 % of control
cell viability (H9c2 cardiomyocytes; H9c2, 48 h, 10.0 µM): 79.8 ± 4.6 % of control
cell viability (H9c2 cardiomyocytes; H9c2, 48 h, 100.0 µM): 55.8 ± 5.5 % of control
antibacterial activity (E. faecalis ATCC 29212): did not inhibit the growth
effectiveness ([4]; U251 cells): not effective
antibacterial activity (S. aureus ATCC 29213): did not inhibit the growth
Growth inhibition, MIC50 (Candida albicans KMM 455 [5]): 34.14 ± 2.1 µM
MIC50 (Candida albicans KMM 455 [5]): 26 to 52 µM (≈ 11.6 to 23.1 µg/mL)
Growth inhibition, MIC50 [6]: 26.74 ± 1.98 µM
MIC50 [6]: 26 to 52 µM (≈ 11.6 to 23.1 µg/mL)
effect with oxacillin ([7]; MRSA S. aureus 66/1, with oxacillin): synergistic effect
Biofilm formation, MIC50 (Candida albicans KMM 455 [8]): 24.12 µM and 24.12 ± 3.07 µM
Biofilm formation, MIC50 [9]: 83.01 µM and 83.01 ± 6.42 µM
effectiveness ([10]; T98G cells): not effective

COC1=C(c2c[nH]c3ccccc23)C(=O)C(CC=C(C)C)=C(c2c[nH]c3ccccc23)C1=O [Compound 6, kumbicin D]
effect on cells (HT29 cells; HT29, at 100 µM): weak effects
effect on cells (MCF-7 cells; MCF-7, at 100 µM): weak effects
cell viability ([1]; MCF-7, 24 h, 1.0 µM): 107.6 ± 6.5 % of control
cell viability ([1]; MCF-7, 24 h, 10.0 µM): 77.7 ± 7.5 % of control
cell viability ([1]; MCF-7, 24 h, 100.0 µM): 29.9 ± 0.8 % of control
cell viability ([1]; MCF-7, 48 h, 1.0 µM): 84.6 ± 9.4 % of control
cell viability ([1]; MCF-7, 48 h, 10.0 µM): 76.8 ± 3.8 % of control
cell viability ([1]; MCF-7, 48 h, 100.0 µM): 12.1 ± 2.7 % of control
cell viability ([2]; 24 h, 1.0 µM): 101.6 ± 3.1 % of control
cell viability ([2]; 24 h, 10.0 µM): 92.4 ± 3.6 % of control
cell viability ([2]; 24 h, 100.0 µM): 23.9 ± 6.2 % of control
cell viability ([2]; 48 h, 1.0 µM): 98.4 ± 4.5 % of control
cell viability ([2]; 48 h, 10.0 µM): 87.4 ± 2.7 % of control
cell viability ([2]; 48 h, 100.0 µM): 13.7 ± 3.2 % of control
cell viability (HaCaT keratinocytes; 24 h, 1.0 µM): 97.2 ± 5.7 % of control
cell viability (HaCaT keratinocytes; 24 h, 10.0 µM): 98.6 ± 3.5 % of control
cell viability (HaCaT keratinocytes; 24 h, 100.0 µM): 21.5 ± 3.3 % of control
cell viability (HaCaT keratinocytes; 48 h, 1.0 µM): 100.5 ± 3.3 % of control
cell viability (HaCaT keratinocytes; 48 h, 10.0 µM): 80.0 ± 0.1 % of control
cell viability (HaCaT keratinocytes; 48 h, 100.0 µM): 11.6 ± 3.5 % of control
IC50 at 24 h [3]: 72.2 ± 4.1 µM
IC50 at 48 h [3]: 65.4 ± 2.1 µM
cell viability (H9c2 cardiomyocytes; H9c2, 24 h, 1.0 µM): 104.0 ± 12.9 % of control
cell viability (H9c2 cardiomyocytes; H9c2, 24 h, 10.0 µM): 92.9 ± 6.1 % of control
cell viability (H9c2 cardiomyocytes; H9c2, 24 h, 100.0 µM): 30.9 ± 2.9 % of control
cell viability (H9c2 cardiomyocytes; H9c2, 48 h, 1.0 µM): 99.7 ± 3.7 % of control
cell viability (H9c2 cardiomyocytes; H9c2, 48 h, 10.0 µM): 88.6 ± 2.3 % of control
cell viability (H9c2 cardiomyocytes; H9c2, 48 h, 100.0 µM): 21.6 ± 2.2 % of control
antibacterial activity (E. faecalis ATCC 29212): not active
effect on cells ([4]; U251, at 100 µM): weak effects
antibacterial activity (S. aureus ATCC 29213): not active
Growth inhibition, MIC50 (Candida albicans KMM 455 [5]): 10.44 ± 1.07 µM
MIC50 (Candida albicans KMM 455 [5]): 7 to 10 µM (≈ 3.06 to 4.37 µg/mL)
Growth inhibition, MIC50 [6]: 9.38 ± 0.77 µM
MIC50 [6]: 7 to 11 µM (≈ 3.06 to 4.8 µg/mL)
antibacterial activity ([7]; MRSA): not active
Biofilm formation, MIC50 (Candida albicans KMM 455 [8]): 8.36 ± 0.95 µM
Biofilm formation, MIC50 [9]: 10.34 ± 0.98 µM
effect on cells ([10]; T98G, at 100 µM): weak effects
